Results as given in PubChem BioAssay AID2060890 (Molecular Pharmacology Branch, DTP, NCI, 2025).

Test system: LG0703-F948-PDC complex spheroid viability
Test: Anticancer human tumor LG0703-F948-PDC patient-derived lung adenocarcinoma cell line growth inhibition [RAS]
Settings: for IC50: curve of first compound; for viability, T/C: stronger effect = lower value
In short: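 Agents were tested in combination matrices in half-log decrements from a top concentration at or near clinical Cmax (10 microM if undetermined). Targets were multi-cell spheroids of tumour lines plus HUVEC and MSC stromal cells.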

[1] = second compound 0.000949 µM, first compound 0.0316 µM
[2] = second compound 0.000949 µM, first compound 0.1 µM
[3] = second compound 0.000949 µM, first compound 0.316 µM
[4] = second compound 0.000949 µM, first compound 1 µM
[5] = second compound 0.000949 µM, first compound 3.16 µM
[6] = second compound 0.000949 µM, first compound 10 µM
[7] = second compound 0.003 µM, first compound 0.0316 µM
[8] = second compound 0.003 µM, first compound 0.1 µM
[9] = second compound 0.003 µM, first compound 0.316 µM
[10] = second compound 0.003 µM, first compound 1 µM
[11] = second compound 0.003 µM, first compound 3.16 µM
[12] = second compound 0.003 µM, first compound 10 µM
[13] = second compound 0.00949 µM, first compound 0.0316 µM
[14] = second compound 0.00949 µM, first compound 0.1 µM
[15] = second compound 0.00949 µM, first compound 0.316 µM
[16] = second compound 0.00949 µM, first compound 1 µM
[17] = second compound 0.00949 µM, first compound 3.16 µM
[18] = second compound 0.00949 µM, first compound 10 µM
[19] = second compound 0.03 µM, first compound 0.0316 µM
[20] = second compound 0.03 µM, first compound 0.1 µM
[21] = second compound 0.03 µM, first compound 0.316 µM
[22] = second compound 0.03 µM, first compound 1 µM
[23] = second compound 0.03 µM, first compound 3.16 µM
[24] = second compound 0.03 µM, first compound 10 µM
[25] = second compound 0.0949 µM, first compound 0.0316 µM
[26] = second compound 0.0949 µM, first compound 0.1 µM
[27] = second compound 0.0949 µM, first compound 0.316 µM
[28] = second compound 0.0949 µM, first compound 1 µM
[29] = second compound 0.0949 µM, first compound 3.16 µM
[30] = second compound 0.0949 µM, first compound 10 µM
[31] = second compound 0.3 µM, first compound 0.0316 µM
[32] = second compound 0.3 µM, first compound 0.1 µM
[33] = second compound 0.3 µM, first compound 0.316 µM
[34] = second compound 0.3 µM, first compound 1 µM
[35] = second compound 0.3 µM, first compound 3.16 µM
[36] = second compound 0.3 µM, first compound 10 µM
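Note: spheroids exposed to agents for 7 days.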
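Throughout, for viability, T/C: 100% = DMSO vehicle wells.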

`Cc1nc(N2CCC3(CC2)COC(C)C3N)c(CO)nc1Sc1ccnc(N)c1Cl` (stereo unspecified) + CCn1c(-c2cc(N3CCN(C)CC3)cnc2C(C)OC)c2c3cc(ccc31)-c1csc(n1)CC(NC(=O)C1CC1C)C(=O)N1CCCC(N1)C(=O)OCC(C)(C)C2 gave an IC50 (second compound 0.000949 µM) of 93 nM, an IC50 (second compound 0.003 µM) of less than 31.6 nM and an IC50 (second compound 0.00949 µM) of less than 31.6 nM. For the same molecule, the IC50 (second compound 0.03 µM) was less than 31.6 nM, the IC50 (second compound 0.0949 µM) was less than 31.6 nM and the IC50 (second compound 0.3 µM) was less than 31.6 nM. For the same molecule, the viability, T/C [1] was 68%, the viability, T/C [2] was 48% and the viability, T/C [3] was 32.7%. The viability, T/C [4] was 18.2%, the viability, T/C [5] was 11.3% and the viability, T/C [6] was 8.65%. For the same molecule, the viability, T/C [7] was 32.3%, the viability, T/C [8] was 23.9% and the viability, T/C [9] was 21.1%. For the same molecule, the viability, T/C [10] was 14.9%, the viability, T/C [11] was 6.78% and the viability, T/C [12] was 5.16%. For the same molecule, the viability, T/C [13] was 26%, the viability, T/C [14] was 15.7% and the viability, T/C [15] was 10.6%. It also gave a viability, T/C [16] of 10.2%, a viability, T/C [17] of 6.57% and a viability, T/C [18] of 7.31%. It also gave a viability, T/C [19] of 13.2%, a viability, T/C [20] of 11.6% and a viability, T/C [21] of 8.59%. For the same molecule, the viability, T/C [22] was 4.72%, the viability, T/C [23] was 7.7% and the viability, T/C [24] was 5.42%. It also gave a viability, T/C [25] of 10.1%, a viability, T/C [26] of 7.94% and a viability, T/C [27] of 6.73%. For the same molecule, the viability, T/C [28] was 6.62%, the viability, T/C [29] was 6.38% and the viability, T/C [30] was 3.71%. The viability, T/C [31] was 7.15%, the viability, T/C [32] was 6.24% and the viability, T/C [33] was 5.96%. It also gave a viability, T/C [34] of 3.97%, a viability, T/C [35] of 3.82% and a viability, T/C [36] of 4.35%.
With `NC1c2ccccc2OC12CCN(c1cnc3c(N4CCCc5ncccc54)n[nH]c3n1)CC2` (stereo unspecified) + CCn1c(-c2cc(N3CCN(C)CC3)cnc2C(C)OC)c2c3cc(ccc31)-c1csc(n1)CC(NC(=O)C1CC1C)C(=O)N1CCCC(N1)C(=O)OCC(C)(C)C2 the IC50 (second compound 0.000949 µM) was less than 31.6 nM, the IC50 (second compound 0.003 µM) was less than 31.6 nM and the IC50 (second compound 0.00949 µM) was less than 31.6 nM. The IC50 (second compound 0.03 µM) was less than 31.6 nM, the IC50 (second compound 0.0949 µM) was less than 31.6 nM and the IC50 (second compound 0.3 µM) was less than 31.6 nM. It also gave a viability, T/C [1] of 30.3%, a viability, T/C [2] of 19.3% and a viability, T/C [3] of 11%. The viability, T/C [4] was 8.58%, the viability, T/C [5] was 5.25% and the viability, T/C [6] was 1.78%. The viability, T/C [7] was 20.3%, the viability, T/C [8] was 11.8% and the viability, T/C [9] was 9.37%. For the same molecule, the viability, T/C [10] was 8.15%, the viability, T/C [11] was 3.56% and the viability, T/C [12] was 1.82%. It also gave a viability, T/C [13] of 14.5%, a viability, T/C [14] of 7.88% and a viability, T/C [15] of 5.28%. It also gave a viability, T/C [16] of 4.34%, a viability, T/C [17] of 2.68% and a viability, T/C [18] of 2.25%. It also gave a viability, T/C [19] of 8.5%, a viability, T/C [20] of 6.42% and a viability, T/C [21] of 4.71%. For the same molecule, the viability, T/C [22] was 2.66%, the viability, T/C [23] was 2.29% and the viability, T/C [24] was 2.1%. It also gave a viability, T/C [25] of 6.81%, a viability, T/C [26] of 4.57% and a viability, T/C [27] of 4.01%. It also gave a viability, T/C [28] of 2.85%, a viability, T/C [29] of 3.37% and a viability, T/C [30] of 1.78%. It also gave a viability, T/C [31] of 3.46%, a viability, T/C [32] of 4.3% and a viability, T/C [33] of 3.62%. The viability, T/C [34] was 2.74%, the viability, T/C [35] was 1.58% and the viability, T/C [36] was 1.7%.
In the case of `Nc1ccn(C2OC(CO)C(O)C2(F)F)c(=O)n1` (stereo unspecified) + CCn1c(-c2cc(N3CCN(C)CC3)cnc2C(C)OC)c2c3cc(ccc31)-c1csc(n1)CC(NC(=O)C1CC1C)C(=O)N1CCCC(N1)C(=O)OCC(C)(C)C2, the IC50 (second compound 0.000949 µM) is reported as 6.69 nM, the IC50 (second compound 0.003 µM) is reported as less than 3.16 nM and the IC50 (second compound 0.00949 µM) is reported as less than 3.16 nM. For the same molecule, the IC50 (second compound 0.03 µM) was less than 3.16 nM, the IC50 (second compound 0.0949 µM) was less than 3.16 nM and the IC50 (second compound 0.3 µM) was less than 3.16 nM. It also gave a viability, T/C (second compound 0.000949 µM, first compound 0.00316 µM) of 65.9%, a viability, T/C (second compound 0.000949 µM, first compound 0.01 µM) of 42.5% and a viability, T/C [1] of 33.1%. It also gave a viability, T/C [2] of 40.5%, a viability, T/C [3] of 39.5% and a viability, T/C [4] of 36.2%. It also gave a viability, T/C (second compound 0.003 µM, first compound 0.00316 µM) of 46.4%, a viability, T/C (second compound 0.003 µM, first compound 0.01 µM) of 31.9% and a viability, T/C [7] of 34.1%. The viability, T/C [8] was 28.7%, the viability, T/C [9] was 29.6% and the viability, T/C [10] was 32.8%. The viability, T/C (second compound 0.00949 µM, first compound 0.00316 µM) was 22.8%, the viability, T/C (second compound 0.00949 µM, first compound 0.01 µM) was 18.3% and the viability, T/C [13] was 17.4%. For the same molecule, the viability, T/C [14] was 13.7%, the viability, T/C [15] was 19.2% and the viability, T/C [16] was 18.3%. For the same molecule, the viability, T/C (second compound 0.03 µM, first compound 0.00316 µM) was 10.1%, the viability, T/C (second compound 0.03 µM, first compound 0.01 µM) was 11.4% and the viability, T/C [19] was 15.6%. The viability, T/C [20] was 14.2%, the viability, T/C [21] was 14.9% and the viability, T/C [22] was 10.5%. The viability, T/C (second compound 0.0949 µM, first compound 0.00316 µM) was 12.6%, the viability, T/C (second compound 0.0949 µM, first compound 0.01 µM) was 8.4% and the viability, T/C [25] was 9.27%. It also gave a viability, T/C [26] of 9.86%, a viability, T/C [27] of 8.62% and a viability, T/C [28] of 8.16%. For the same molecule, the viability, T/C (second compound 0.3 µM, first compound 0.00316 µM) was 10.5%, the viability, T/C (second compound 0.3 µM, first compound 0.01 µM) was 7.77% and the viability, T/C [31] was 11%. For the same molecule, the viability, T/C [32] was 6.54%, the viability, T/C [33] was 6.46% and the viability, T/C [34] was 5.98%.
